The values that follow come from patent publication US10828305B2 (SHANGHAI PHARMACEUTICALS HOLDING CO., LTD., priority 2016, dated 2020).

Test [1] has as its system BT-474. Briefly: Proliferation inhibition assay in vitro, BT-474 (CellTiter-Glo). The note with it: Homo sapiens, 72 hours, read-out: IC50(nM) cell BT-474. It counts as cell-based. In outline: (§1)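 Cells were seeded at 8.8×10^4 cells/mL for BT-474 or 6.6×10^4 cells/mL for N87 and grown overnight. Compound was added at 9 concentrations in duplicate for 72 h at 37 °C, 5% CO2. Viability was measured by CellTiter-Glo.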
(In ATP-based viability assays light output follows the ATP content of the culture.)

Test [2] addresses EGFR kinase (Homo sapiens, UniProt P00533). Kind of test: Enzymatic experiment on EGFR (HTRF kinEASE-TK). It counts as biochemical. In outline:
(§2)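 HTRF kinEASE-TK with biotinylated TK substrate in HEPES pH 7.0 buffer containing MnCl2, MgCl2 and DTT; ErbB2 at 0.06 ng/μl with 4 μM ATP, EGFR at 0.06 units/μl with 1.65 μM ATP, 30 min at room temperature after 5 min enzyme/substrate–compound preincubation. Ten-point 3-fold dilutions; Eu antibody/SA-XL665 detection, 665/620 ratio.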
Background: In TR-FRET formats the signal depends on donor and acceptor labels being close together.

The test system of test [3] is N87. Briefly: Proliferation inhibition assay in vitro, N87 (CellTiter-Glo). The note with it: Homo sapiens; 72 hours; read-out: IC50(nM) cell N87. In kind it is cell-based. The essentials:
as §1

Test [4] deals with ErbB2 kinase (Homo sapiens, UniProt P04626). Briefly: Enzymatic experiment on ErbB2 (HTRF kinEASE-TK). In kind it is biochemical. The essentials:
as §2

[5] abbreviates: ATP 1.65 μM, read-out: Kinase IC50 (nM) in vitro EGFR.
[6] abbreviates: ATP 4 μM, read-out: Kinase IC50 (nM) in vitro ErbB2.

Read-outs that look alike come from different tables or passages of the source.

ErbB2 kinase, sequence (P04626 23-1255): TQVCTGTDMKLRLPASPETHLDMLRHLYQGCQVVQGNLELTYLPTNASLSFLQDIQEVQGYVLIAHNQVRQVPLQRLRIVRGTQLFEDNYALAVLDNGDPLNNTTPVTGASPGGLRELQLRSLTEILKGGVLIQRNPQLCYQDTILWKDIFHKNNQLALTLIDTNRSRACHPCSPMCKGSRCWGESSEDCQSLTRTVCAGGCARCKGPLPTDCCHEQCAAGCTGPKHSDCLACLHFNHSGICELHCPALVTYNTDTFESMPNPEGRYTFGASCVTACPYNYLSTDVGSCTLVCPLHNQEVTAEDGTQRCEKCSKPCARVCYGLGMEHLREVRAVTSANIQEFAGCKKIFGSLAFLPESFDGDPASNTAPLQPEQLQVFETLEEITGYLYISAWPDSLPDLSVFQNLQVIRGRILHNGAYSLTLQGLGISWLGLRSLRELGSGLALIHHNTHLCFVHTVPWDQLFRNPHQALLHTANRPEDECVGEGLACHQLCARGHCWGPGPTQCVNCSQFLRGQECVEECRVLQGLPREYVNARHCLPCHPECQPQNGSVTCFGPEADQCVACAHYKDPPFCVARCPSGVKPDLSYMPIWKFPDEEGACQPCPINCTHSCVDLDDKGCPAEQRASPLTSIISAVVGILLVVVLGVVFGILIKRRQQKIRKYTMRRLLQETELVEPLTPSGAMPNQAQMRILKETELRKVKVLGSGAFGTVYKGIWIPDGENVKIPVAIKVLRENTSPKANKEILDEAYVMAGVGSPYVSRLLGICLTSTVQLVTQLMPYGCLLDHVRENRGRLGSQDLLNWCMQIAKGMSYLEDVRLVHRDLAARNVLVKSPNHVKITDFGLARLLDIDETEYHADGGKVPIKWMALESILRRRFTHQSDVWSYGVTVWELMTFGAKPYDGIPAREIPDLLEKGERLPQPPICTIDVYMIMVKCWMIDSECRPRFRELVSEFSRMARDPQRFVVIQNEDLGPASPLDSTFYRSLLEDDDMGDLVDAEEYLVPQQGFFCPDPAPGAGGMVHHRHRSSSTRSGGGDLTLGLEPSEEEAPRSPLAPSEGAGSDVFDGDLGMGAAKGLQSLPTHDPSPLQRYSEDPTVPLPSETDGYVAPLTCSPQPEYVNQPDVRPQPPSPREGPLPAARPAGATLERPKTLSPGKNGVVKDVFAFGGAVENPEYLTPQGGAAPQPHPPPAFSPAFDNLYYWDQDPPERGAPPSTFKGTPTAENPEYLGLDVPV
EGFR kinase, sequence (P00533 25-1210): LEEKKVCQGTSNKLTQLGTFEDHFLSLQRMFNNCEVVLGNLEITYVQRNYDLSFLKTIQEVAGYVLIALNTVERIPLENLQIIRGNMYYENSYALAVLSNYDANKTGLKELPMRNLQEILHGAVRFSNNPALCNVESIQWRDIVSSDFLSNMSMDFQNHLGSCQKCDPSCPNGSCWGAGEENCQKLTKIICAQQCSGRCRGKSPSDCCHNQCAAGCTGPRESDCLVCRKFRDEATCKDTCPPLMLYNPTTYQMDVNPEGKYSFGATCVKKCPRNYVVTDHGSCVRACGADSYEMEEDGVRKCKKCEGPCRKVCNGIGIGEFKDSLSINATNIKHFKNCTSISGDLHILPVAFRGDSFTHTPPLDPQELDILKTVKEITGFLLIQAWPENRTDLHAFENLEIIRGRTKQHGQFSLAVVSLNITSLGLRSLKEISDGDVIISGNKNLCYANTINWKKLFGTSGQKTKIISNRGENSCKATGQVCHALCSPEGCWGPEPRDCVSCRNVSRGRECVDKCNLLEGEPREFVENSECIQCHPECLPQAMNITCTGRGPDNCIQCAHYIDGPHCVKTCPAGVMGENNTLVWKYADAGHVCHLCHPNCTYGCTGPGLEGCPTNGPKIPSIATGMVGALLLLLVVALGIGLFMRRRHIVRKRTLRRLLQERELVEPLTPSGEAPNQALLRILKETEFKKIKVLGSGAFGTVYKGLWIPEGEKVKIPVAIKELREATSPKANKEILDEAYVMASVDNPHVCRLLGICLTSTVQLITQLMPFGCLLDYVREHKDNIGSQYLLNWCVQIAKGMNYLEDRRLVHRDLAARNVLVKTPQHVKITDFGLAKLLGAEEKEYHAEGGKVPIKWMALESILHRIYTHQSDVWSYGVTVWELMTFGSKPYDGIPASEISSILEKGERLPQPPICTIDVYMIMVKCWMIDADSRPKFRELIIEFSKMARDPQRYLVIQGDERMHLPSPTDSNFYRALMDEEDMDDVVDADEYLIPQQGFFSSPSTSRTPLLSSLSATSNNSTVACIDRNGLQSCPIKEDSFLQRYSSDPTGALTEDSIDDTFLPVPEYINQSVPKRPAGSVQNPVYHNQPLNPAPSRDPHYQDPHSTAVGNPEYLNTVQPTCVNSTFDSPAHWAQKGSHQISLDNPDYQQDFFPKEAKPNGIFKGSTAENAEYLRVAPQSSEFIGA

Usually IC50 stands for the concentration at which inhibition is half-maximal. Turning to `C=CC(=O)N1CCC(Oc2cc3c(Nc4ccc(Oc5cc6nncn6cn5)c(F)c4)ncnc3cc2OC)CC1` [Embodiment 88, 1-(4-((4-((4-([1,2,4]triazolo[4,3-c]pyrimidin-7-yloxy)-3-fluorophenyl)amino)-7-methoxyquinazolin-6-yl)oxy)piperidin-1-yl)prop-2-en-1-one], the half-maximal inhibitory concentration (IC50) is 6.3 nM in test [1], 1.9 nM in test [2] (setting [5]), 5.2 nM in test [3] and 1.13 nM in test [4] (setting [6]).
For `CCOC(=O)Nc1cccc(-c2ccc3ncnc(Nc4ccc(Oc5cc6nncn6cn5)c(C)c4)c3c2)c1` [Embodiment 38, ethyl (3-(4-((4-([1,2,4]triazolo[4,3-c]pyrimidin-7-yloxy)-3-methylphenyl)amino)quinazoline-6-yl)phenyl)carbamate] the same measures were 186 nM, 28.1 nM, 86.6 nM and 5 nM.
As for `COCC(=O)NC/C=C/c1ccc2ncnc(Nc3ccc(Oc4cc5nncn5cn4)c(C)c3)c2c1` [Embodiment 14, 2-methoxy-N-((E)-3-(4-(3-methyl-4-([1,2,4]triazolo[4,3-c]pyrimidin-7-yloxy)anilino)-6-quinazolinyl)allyl)acetamide], the IC50 in test [1] was found to be 35.2 nM; in test [2] (setting [5]), 115 nM; in test [3], 94.1 nM; in test [4] (setting [6]), 1.7 nM.
For `Cc1cc(Nc2ncnc3ccc(-c4ccc(N)nn4)cc23)ccc1Oc1cc2nncn2cn1` [Embodiment 118, N-(4-([1,2,4]triazolo[4,3-c]pyrimidin-7-yloxy)-3-methylphenyl)-6-(6-aminopyridazin-3-yl)quinazolin-4-amine] the same measures were 73.4 nM, 28.4 nM, 389 nM and 8.59 nM.
For `Cc1cc(Nc2ncnc3ccc(NC4=N[C@@H](C)CO4)cc23)ccc1Oc1cc2nncn2cn1` [Embodiment 8], in that order: 43.4 nM, 115 nM, 68.7 nM and 7.8 nM.
Consider `Cc1cc(Nc2ncnc3ccc(NC(=O)/C=C/CN(C)C)cc23)ccc1Oc1cc2nncn2cn1` [Embodiment 57, (E)-N-(4-((4-([1,2,4]triazolo[4,3-c]pyrimidin-7-yloxy)-3-methylphenyl)amino)quinazolin-6-yl)-4-(dimethylamino)-2-butenamide], for which the IC50 came to 5.6 nM in test [1], 2.7 nM in test [2] (setting [5]), 12.8 nM in test [3] and 1.7 nM in test [4] (setting [6]).
`Cc1cc(Nc2ncnc3ccc(-n4ccc(CNCCS(C)(=O)=O)c4)cc23)ccc1Oc1cc2nncn2cn1` [Embodiment 86, N-(4-([1,2,4]triazolo[4,3-c]pyrimidin-7-yloxy)-3-methylphenyl)-6-(3-(((2-(methylsulfonyl)ethyl)amino)methyl)-1H-pyrrol-1-yl)quinazolin-4-amine]: the IC50 was determined as 33.8 nM in test [1], 7.7 nM in test [2] (setting [5]), 160 nM in test [3] and 3.1 nM in test [4] (setting [6]).
For `C=C(F)C(=O)Nc1cccc(-c2ccc3ncnc(Nc4ccc(Oc5cc6nncn6cn5)c(C)c4)c3c2)c1` [Embodiment 71, N-(3-(4-((4-([1,2,4]triazolo[4,3-c]pyrimidin-7-yloxy)-3-methylphenyl)amino)quinazolin-6-yl)phenyl)-2-fluoroacrylamide], in that order: 42.7 nM, 20.7 nM, 66.4 nM and 3.5 nM.
As to `Cc1cc(Nc2ncnc3ccc(NC4=NC5(CO4)CC(F)(F)C5)cc23)ccc1Oc1cc2nncn2cn1` [Embodiment 48, N^4-(4-([1,2,4]triazolo[4,3-c]pyrimidin-7-yloxy)-3-methylphenyl)-N^6-(2,2-difluoro-7-oxa-5-azaspiro[3.4]oct-5-en-6-yl)quinazoline-4,6-diamine], the concentration for half-maximal inhibition (IC50) in test [1] is 42.2 nM; in test [2] (setting [5]) it was 9.4 nM; in test [3], 64 nM; in test [4] (setting [6]), 1.3 nM.
For `C=C(F)C(=O)N1CCC(Oc2cc3c(Nc4ccc(Oc5cc6nncn6cn5)c(C)c4)ncnc3cc2OC)CC1` [Embodiment 42, 1-(4-((4-((4-([1,2,4]triazolo[4,3-c]pyrimidin-7-yloxy)-3-methylphenyl)amino)-7-methoxyquinazolin-6-yl)oxy)piperidin-1-yl)-2-fluoroprop-2-en-1-one] the same measures were 36.7 nM, 8.3 nM, 39.2 nM and 5.2 nM.
Consider `Cc1cc(Nc2ncnc3ccc(-c4ccc(CNCCS(N)(=O)=O)o4)cc23)ccc1Oc1cc2nncn2cn1` [Embodiment 65], for which the IC50 was 19.8 nM in test [1], 3.8 nM in test [2] (setting [5]), 63.2 nM in test [3] and 1 nM in test [4] (setting [6]).
For `C=C(F)C(=O)Nc1cc2c(Nc3ccc(Oc4cc5nncn5cn4)c(C)c3)ncnc2cc1OCC` [Embodiment 127, N-(4-((4-([1,2,4]triazolo[4,3-c]pyrimidin-7-yloxy)-3-methylphenyl)amino)-7-ethoxyquinazolin-6-yl)-2-fluoroacrylamide] the same measures were 8 nM, 6.6 nM, 30.7 nM and 5.6 nM.
For `Cc1cc(Nc2ncnc3ccc(NC4=NC5(CC5)CO4)cc23)ccc1Oc1cc2nncn2cn1` [Embodiment 72, N′-(4-([1,2,4]triazolo[4,3-c]pyrimidin-7-yloxy)-3-methylphenyl)-N^6-(6-oxa-4-azaspiro[2.4]hept-4-en-5-yl)quinazolin-4,6-diamine], in that order: 30 nM, 4.3 nM, 34.2 nM and 0.9 nM.
For `Cc1cc(Nc2ncnc3ccc(NC4=N[C@H](C(C)C)CO4)cc23)ccc1Oc1cc2nncn2cn1` [Embodiment 45, (R)—N^4-(4-([1,2,4]triazolo[4,3-c]pyrimidin-7-yloxy)-3-methylphenyl)-N^6-(4-isopropyl-4,5-dihydrooxazol-2-yl)quinazoline-4,6-diamine], in that order: 85.4 nM, 53.4 nM, 93.4 nM and 2.8 nM.
On to `Cc1cc(Nc2ncnc3ccc(NC(=O)Oc4ccccc4)cc23)ccc1Oc1cc2nncn2cn1` [Embodiment 66], for which the IC50 was determined as 275 nM in test [1], 567 nM in test [2], 487 nM in test [3] and 12.9 nM in test [4].
Consider `CN1CCC[C@@H]1/C=C/C(=O)Nc1ccc2ncnc(Nc3ccc(Oc4cc5nncn5cn4)c(Cl)c3)c2c1` [Embodiment 98, (R,E)-N-(4-((4-([1,2,4]triazolo[4,3-c]pyrimidin-7-yloxy)-3-chlorophenyl)amino)quinazolin-6-yl)-3-(1-methylpyrrolidin-2-yl)acrylamide], for which the IC50 in test [1] amounted to 3 nM; in test [2] (setting [5]), 1.6 nM; in test [3] it was 2.5 nM; in test [4] (setting [6]) it was 1.78 nM.
For `Cc1cc(Nc2ncnc3ccc(-c4cccc(NC(=O)/C=C/c5cccnc5)c4)cc23)ccc1Oc1cc2nncn2cn1` [Embodiment 51, (E)-N-(3-(4-((4-([1,2,4]triazolo[4,3-c]pyrimidin-7-yloxy)-3-methylphenyl)amino)quinazolin-6-yl)phenyl)-3-(pyridin-3-yl)acryiamide] the same measures were 108 nM, 47.1 nM, 93.7 nM and 8.41 nM.
